Series [1] has as its system Escherichia coli (coliform bacillus) NIHJ JC-2. Kind of series: Test of antibacterial activity of amikacin sulfate (MIC, small amount broth dilution). Format: cell-based. How it is done: (§1) In accordance with the MIC measurement by a small amount broth dilution method which is the standard method of the Japanese Society of Chemotherapy, the antibacterial activity of amikacin sulfate was evaluated. As the culture medium for measuring sensitivity, Cation Supplemented Mueller-Hinton Broth: CSMHB (obtained from EIKEN CHEMICAL CO., LTD.) was employed. This CSMHB was dividedly-poured 90 μl each into a U-shaped bottom 96-well microplate. Samples taken 0, 2, 4 and 6 hours from initiation of electrolysis described in the above 1. were prepared. A diluted solution was prepared in accordance with the standard method for each of these samples. […] The bacilli used in the present example are identical to the two types of bacilli used in Example 1, i.e. Staphylococcus aureus (staphylococcus bacteria) FDA […] and Escherichia coli (coliform bacillus) NIHJ JC-2. A solution including bacillus for inoculation similar to that of Example 1 was prepared. The solution including bacillus was inoculated approximately 0.005 ml each into each well of the plate set forth above within 15 minutes from preparation of the solution including bacillus. In this plate, a medium not containing the agent was poured into 1-2 wells as the control of the growth of the bacillus. Cultivation was conducted for 18 to 24 hours at 35° C. The evaluation method is identical to that employed in Example 1.

Series [2] relates to Staphylococcus aureus (staphylococcus bacteria) FDA 209P. Described as above. In kind it is cell-based. How it is done: as §1
A short description of series [3]: Ion chromatograph and total nitrogen analysis of electrolyzed amikacin sulfate solution. In kind it is physicochemical. The conditions noted are these: for Nitrogen Concentration Org-N: T-N minus NO3—N, NO2—N, NH4—N.
Series [4] can be described thus: High performance liquid chromatograph analysis of electrolyzed amikacin sulfate solution. Format: physicochemical.
A further series has as its system MOLT-4 cell. Description: Cytotoxicity (CC50) test, WST-8. Format: cell-based, human. An excerpt:
For the measurement of the number of cells, tetrazolium salt WST-8 (Cell Counting Kit-8 available as a kit) was employed as the chromophone. The basic principle of the cytotoxicity (CC50) test is set forth below. WST-8 is reduced by intracellular dehydrogenation enzyme to produce soluble formazan. Since the number of cells and the amount of generated formazan is linearly proportional, the number of cells can be readily measured by directly measuring the absorbancy of formazan at 450 nm. The specific procedure for measurement is set forth below. 180 μl of a culture medium was introduced into each of the wells in the range of rows A-D and columns 3-10 in a 96-well flat microtiter plate for diluting the agent. 240 μl of the sample taken at 0 hours from initiation of electrolysis was added to the well of row A, column 2 in the microtiter plate. 240 μl of the sample taken 2 hours from initiation of electrolysis was added to the well of row B, column 2. 240 μl of the sample taken 4 hours from initiation of electrolysis was added to the well of row C, column 2. 240 μl of the sample taken 6 hours from initiation of electrolysis was added to the well of row D, column 2. To produce respective columns of sample dilutions, samples of 60 μl each was taken from the above-described samples of 240 μl. These samples of 60 μl were sequentially added to the right side well to be sufficiently pipeted. This was conducted up to column 10. Two of U-bottom 96-well microtiter plates for cultivation were prepared, and 200 μl of PBS was applied to all the side-most wells. 100 μl of culture medium was introduced into each of the wells of rows B-G, columns 2-9. 150 μl of culture medium was introduced into the wells of columns 10 and 11. Then, 50 μl of cell suspension solution prepared to 5×10^6 cell/ml was introduced into each of the wells of rows B-G, columns 2-9 and column 11. The wells of column 10 were absent of cells. […] Then, the O.D. was measured at 450 nm and 620 nm using a microplate reader.

Setting [5] is: 6 hours from initiation of electrolysis.

The source of these data is US7361263B2, “Water treatment apparatus and method” (Sanyo Electric Co., Ltd., priority 2002, dated 2008).

Structures are written as SMILES. Read-outs that look alike come from different tables or passages of the source.

`NCC[C@H](O)C(=O)N[C@@H]1C[C@H](N)[C@@H](O[C@H]2O[C@H](CN)[C@@H](O)[C@H](O)[C@H]2O)[C@H](O)[C@H]1O[C@H]1O[C@H](CO)[C@@H](O)[C@H](N)[C@H]1O.O=S(=O)(O)O.O=S(=O)(O)O` [amikacin sulfate, Amikacin sulfate]: the “minimum inhibitory concentration (MIC)” value in series [1] (6 hours from initiation of electrolysis, as tested) is more than 100 µg/mL; in series [1] (electrolyzing time 0 hours), 3.125 µg/mL; in series [1] (electrolyzing time 2 hours), 12.5 µg/mL; in series [1] (electrolyzing time 4 hours) it was 50 µg/mL; in series [2] (electrolyzing time 0 hours), 0.195 µg/mL; in series [2] (electrolyzing time 2 hours) it was 1.56 µg/mL. For the same molecule, the “minimum inhibitory concentration (MIC)” value turned out to be 6.25 µg/mL in series [2] (electrolyzing time 4 hours) and 100 µg/mL in series [2] (electrolyzing time 6 hours). Also, the “relative value of the MIC (MIC at 0 hours set as 1)” value is 1 in series [1] (electrolyzing time 0 hours); “¼” in series [1] (electrolyzing time 2 hours); 1/16 in series [1] (electrolyzing time 4 hours); 1/212 in series [1] (electrolyzing time 6 hours, from calculated MIC); 1 in series [2] (electrolyzing time 0 hours); “⅛” in series [2] (electrolyzing time 2 hours). Further, the results for the “relative value of the MIC (MIC at 0 hours set as 1)” value in series [2] (electrolyzing time 4 hours) and in series [2] (electrolyzing time 6 hours) were 1/32 and 1/512, respectively. Moreover, in series [1] (electrolyzing time 6 hours, calculated), the “minimum inhibitory concentration (MIC), calculated based on formula (4)” value is 664 µg/mL. The “Nitrate nitrogen (NO3—N) share of the total nitrogen (T-N)” value in series [3] (setting [5]) was “approximately 50%”. In series [3] (setting [5]), the “ammonia nitrogen (NH4—N) share of the total nitrogen (T-N)” value is recorded as “approximately 50%”. The “Nitrogen Concentration NH4—N” value in series [3] (electrolyzing time 0 hours) is listed as 0 mg/L; in series [3] (electrolyzing time 1 hour) it was 4.18 mg/L; in series [3] (electrolyzing time 2 hours), 9.06 mg/L; in series [3] (electrolyzing time 3 hours), 10.93 mg/L; in series [3] (electrolyzing time 4 hours), 13.43 mg/L; in series [3] (electrolyzing time 5 hours), 16 mg/L. Moreover, the “Nitrogen Concentration NH4—N” value in series [3] (electrolyzing time 6 hours) came to 17.84 mg/L. For the same molecule, the “Nitrogen Concentration NO2—N” value in series [3] (electrolyzing time 0 hours), in series [3] (electrolyzing time 1 hour), in series [3] (electrolyzing time 2 hours), in series [3] (electrolyzing time 3 hours), in series [3] (electrolyzing time 4 hours) and in series [3] (electrolyzing time 5 hours) was 0 mg/L throughout. In addition, the “Nitrogen Concentration NO2—N” value in series [3] (electrolyzing time 6 hours) worked out at 0 mg/L. The “Nitrogen Concentration NO3—N” value is on record as 0.22 mg/L in series [3] (electrolyzing time 0 hours); 1 mg/L in series [3] (electrolyzing time 1 hour); 2.39 mg/L in series [3] (electrolyzing time 2 hours); 4.21 mg/L in series [3] (electrolyzing time 3 hours); 8.6 mg/L in series [3] (electrolyzing time 4 hours); 11.82 mg/L in series [3] (electrolyzing time 5 hours). The “Nitrogen Concentration NO3—N” value in series [3] (electrolyzing time 6 hours) was 16.94 mg/L. Moreover, the “Nitrogen Concentration T-N” value is given as 80.1 mg/L in series [3] (electrolyzing time 0 hours); 29.65 mg/L in series [3] (electrolyzing time 2 hours); 32.17 mg/L in series [3] (electrolyzing time 3 hours); 32.75 mg/L in series [3] (electrolyzing time 4 hours); 33.04 mg/L in series [3] (electrolyzing time 5 hours); 32.27 mg/L in series [3] (electrolyzing time 6 hours). Further, the “Nitrogen Concentration Org-N” value in series [3] (electrolyzing time 0 hours) stood at 79.88 mg/L; in series [3] (electrolyzing time 1 hour), 25.52 mg/L; in series [3] (electrolyzing time 2 hours), 18.20 mg/L; in series [3] (electrolyzing time 3 hours) it was 17.03 mg/L; in series [3] (electrolyzing time 4 hours), 10.72 mg/L; in series [3] (electrolyzing time 5 hours), 5.22 mg/L. Moreover, in series [3] (electrolyzing time 6 hours), the “Nitrogen Concentration Org-N” value was -2.51 mg/L. Moreover, the amikacin sulfate decomposed entry in series [4] (2 hours from initiation of electrolysis) is “approximately 90%”; in series [4] (4 hours and thereafter from initiation of electrolysis), “approximately 99%”. Besides, the “Concentration of amikacin sulfate” value in series [4] (electrolyzing time 0 hours (taken as 1,000 mg/L)) amounted to 1000 µg/mL; in series [4] (electrolyzing time 2 hours, from peak area at retention time 4.2 minutes) it was 98.579 µg/mL; in series [4] (electrolyzing time 4 hours, from peak area at retention time 4.2 minutes), 15.914 µg/mL; in series [4] (electrolyzing time 6 hours, from peak area at retention time 4.2 minutes), 10.911 µg/mL.
As to `OCl` [hypochlorous acid], the contribution to cytotoxicity result in the series with MOLT-4 cell is listed as “almost no contribution to cytotoxicity”.
On to `O=S([O-])([O-])=S.[Na+].[Na+]` [sodium thiosulfate], for which the contribution to cytotoxicity result in the series with MOLT-4 cell (in the electrolyzed samples, Molt-4 cells) is “almost no contribution to cytotoxicity”.
